This is an account of results in PubChem BioAssay (NCI).

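Where inhibition never reached the appropriate level, the endpoint shown equals the highest concentration tested. Otherwise, values were interpolated linearly from a five-concentration, 48-hour dose response in 96-well plates. TGI denotes the concentration required for complete inhibition of growth.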

What all share (experiment): NCI tumour cell line growth inhibition, 48 h
Assay [1] relates to BT-549 breast.
The test system of assay [2] is CAKI-1 renal.
Assay [3] relates to CCRF-CEM leukemia.
Assay [4] has as its system HCC-2998 colon.
Assay [5] concerns IGROV1 ovarian.
Assay [6] relates to M14 melanoma.
In assay [7] the test system is MDA-MB-231 breast.
The test system of assay [8] is MDA-N.
The subject of assay [9] is MOLT-4 leukemia.
Assay [10] has as its system OVCAR-3 ovarian.
Assay [11] concerns SF-539 CNS.
Assay [12] concerns UO-31 renal.

Regarding `Cc1nn2c(=O)c([N+](=O)[O-])c(/C=C/c3ccc(F)cc3)nc2s1`, the TGI in assay [1] was 18.8 µM; in [2], 27.9 µM; in assay [3] it was 23.5 µM; in assay [4], 16.4 µM; in [5], 22.6 µM; in [6] it was 16.4 µM. Also, the TGI in assay [7] came to 26.8 µM; in assay [8], 15.8 µM; in [9], 28.6 µM; in assay [10] it was 16.6 µM; in assay [11], 17.9 µM; in assay [12] it was 16.2 µM.

Consider `O=c1c(-c2nc3ccccc3c3ccccc3c2=O)nc2ccccc2c2ccccc12`, for which the TGI in assay [1] is more than 100 µM; in [2], more than 100 µM; in [3], 86.8 µM; in assay [4], 68 µM; in [5] it was more than 100 µM; in assay [6], more than 100 µM. Besides, the TGI is more than 100 µM in assay [7]; 69 µM in assay [8]; more than 100 µM in assay [9]; 97.3 µM in assay [10]; 55.3 µM in [11]; more than 100 µM in [12].

As for `NCCCN(CCCCN(CCCN)CCCc1ccccc1)CCCc1ccccc1`, the TGI came to 10.1 µM in assay [1]; 4.94 µM in assay [2]; 7.83 µM in [3]; 2.99 µM in [4]; 8.88 µM in [5]; 3.57 µM in assay [6]. The TGI was found to be 4.39 µM in [7]; 3.23 µM in assay [8]; 5.21 µM in [9]; 3.34 µM in [10]; 3.55 µM in [11]; 5.66 µM in assay [12].

Consider `CC(=O)OCC1OC(OCCCOP(=O)(OCCC#N)OCC2OC(n3cnc4c(N)ncnc43)C(OC(=O)c3ccccc3)C2OC(=O)c2ccccc2)C(OC(C)=O)C(OC(C)=O)C1OC(C)=O` (stereo not given), for which the TGI in [1], in assay [2], in assay [3], in [4], in assay [5] and in assay [6] was more than 100 µM each time. Also, the TGI in assay [7], in assay [8], in [9], in assay [10], in [11] and in assay [12] was more than 100 µM throughout.

Consider `CCN(CC)c1c(C(C)(C)C)c(=O)n2ccsc2c1OC(C)=O`, for which the TGI is 30.3 µM in assay [1]; 33.1 µM in [2]; more than 100 µM in [3]; 32.2 µM in [4]; 31.2 µM in assay [5]; 31.2 µM in assay [6]. For the same molecule, the TGI in assay [7] was 32.5 µM; in [8], 34.6 µM; in [9], more than 100 µM; in assay [10] it was 30.8 µM; in assay [11] it was 33.3 µM; in assay [12], 31.7 µM.

Turning to `COc1cc(/C=C(\C)[N+](=O)[O-])cc(OC)c1`, the TGI in assay [1] is 33.6 µM; in assay [2] it was 27.8 µM; in [3] it was 5.77 µM; in assay [4], 55.5 µM; in [5] it was 17.6 µM; in assay [6], 28.2 µM. Moreover, the TGI in assay [7] was found to be 31 µM; in assay [8], 17.5 µM; in assay [9], 6.16 µM; in [10] it was 31.8 µM; in assay [11], 16.9 µM; in [12], 29.1 µM.

Take `O=C(/C=C/c1ccc(-c2ccccc2)cc1)NCc1ccc(C(=O)NCCc2ccccc2)cc1`: the TGI in assay [1] is more than 100 µM; in [2] it was more than 100 µM; in assay [3], 39.1 µM; in assay [4], more than 100 µM; in assay [5], more than 100 µM; in assay [6], more than 100 µM. The TGI in assay [7] was more than 100 µM; in assay [8], more than 100 µM; in assay [9], more than 100 µM; in assay [10], more than 100 µM; in [11], 38.1 µM; in [12] it was more than 100 µM.

For the molecule `S=c1ncc(-c2cncc(-c3cnc(=S)[nH]c3)n2)c[nH]1`, the TGI in assay [1], in assay [2], in [3], in assay [4], in assay [5] and in assay [6] was more than 100 µM throughout. In addition, the TGI in assay [7], in [8], in [9], in assay [10], in assay [11] and in [12] was more than 100 µM in each case.

With `Cc1sc(/N=C/C2=C(O)CC(C)(C)CC2=O)nc1-c1ccccc1`, the TGI in assay [1], in assay [2], in assay [3], in assay [4], in [5] and in [6] was more than 100 µM in each case. In addition, the TGI in [7], in [8], in [9], in assay [10], in assay [11] and in [12] was more than 100 µM throughout.

In the case of `C=CCOCC1C2CCC3(OCCO3)C21` (stereo not given), the TGI in [1] was more than 100 µM; in assay [2], 87.5 µM; in assay [3], more than 100 µM; in assay [4], more than 100 µM; in [5], more than 100 µM; in [6], more than 100 µM. Besides, the TGI is more than 100 µM in assay [7]; more than 100 µM in [8]; more than 100 µM in assay [9]; more than 100 µM in assay [10]; more than 100 µM in [11]; 75.2 µM in assay [12].
